What was measured:
Type in all cases: in vivo
[1] = tested on: Italian ryegrass (Lolium multiflorum); experiment: Test A preemergence, visual injury rating
How it was run: (§1)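 Visual 0–100 rating (100 = complete control) taken about 10 d post-treatment relative to untreated checks. Preemergence: directed soil spray on sown loam/sand pots. Postemergence: seedlings 2–10 cm, 1–2 leaf. Non-phytotoxic solvent formulation with surfactant.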

[2] = tested on: giant foxtail (Setaria faberii); experiment: Test A preemergence, visual injury rating
How it was run: as §1

[3] = tested on: pigweed (Amaranthus retroflexus); experiment: Test A preemergence, visual injury rating
How it was run: as §1

[4] = tested on: ragweed (common ragweed, Ambrosia elatior); experiment: Test A preemergence, visual injury rating
How it was run: as §1

[5] = tested on: blackgrass (Alopecurus myosuroides); experiment: Test C preemergence, plant response rating; settings: Alopecurus myosuroides, pre-emergence, Preemergence
How it was run: (§2)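 Preemergence: seeds sown in loam–sand blend or silt loam and sprayed with test chemicals in a non-phytotoxic surfactant-containing solvent. Postemergence: potted plants at 2–18 cm (1–4-leaf stage) sprayed with the same formulation. After 13–15 d in greenhouse, visual rating versus controls on 0 (no effect) to 100 (complete control) scale.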

corn (Zea mays) = experiment: Test C preemergence, plant response rating; settings: Zea mays, pre-emergence, Preemergence
How it was run: as §2

[6] = tested on: crabgrass, large (large crabgrass, Digitaria sanguinalis); experiment: Test C preemergence, plant response rating; settings: Digitaria sanguinalis, pre-emergence, Preemergence
How it was run: as §2

[7] = tested on: foxtail, giant (giant foxtail, Setaria faberii); experiment: Test C preemergence, plant response rating; settings: Setaria faberi, pre-emergence, Preemergence
How it was run: as §2

[8] = tested on: lambsquarters (Chenopodium album); experiment: Test C preemergence, plant response rating; settings: Chenopodium album, pre-emergence, Preemergence
How it was run: as §2

[9] = tested on: morningglory (Ipomoea coccinea); experiment: Test C preemergence, plant response rating; settings: Ipomoea, pre-emergence, Preemergence
How it was run: as §2

[10] = tested on: nutsedge, yellow (yellow nutsedge, Cyperus esculentus); experiment: Test C preemergence, plant response rating; settings: Cyperus, pre-emergence, Preemergence
How it was run: as §2

[11] = tested on: oilseed rape (Brassica napus); experiment: Test C preemergence, plant response rating; settings: Brassica napus, pre-emergence, Preemergence
How it was run: as §2

[12] = tested on: ragweed (common ragweed, Ambrosia elatior); experiment: Test C preemergence, plant response rating; settings: Ambrosia artemisiifolia, pre-emergence, Preemergence
How it was run: as §2

[13] = tested on: ryegrass, Italian (Italian ryegrass, Lolium multiflorum); experiment: Test C preemergence, plant response rating; settings: Lolium multiflorum, pre-emergence, Preemergence
How it was run: as §2

soybean (Glycine max) = experiment: Test C preemergence, plant response rating; settings: Glycine max, pre-emergence, Preemergence
How it was run: as §2

[14] = tested on: velvetleaf (Abutilon theophrasti); experiment: Test C preemergence, plant response rating; settings: Abutilon theophrasti, pre-emergence, Preemergence
How it was run: as §2

[15] = tested on: waterhemp (common waterhemp, Amaranthus rudis); experiment: Test C preemergence, plant response rating; settings: Amaranthus tuberculatus, pre-emergence, Preemergence
How it was run: as §2

[16] = tested on: wheat (winter wheat, Triticum aestivum); experiment: Test C preemergence, plant response rating; settings: Triticum aestivum, pre-emergence, Preemergence
How it was run: as §2

[17] = 31 g ai/ha, 0 to 100 scale, 0 no effect, 100 complete control
[18] = 125 g ai/ha, 0 to 100 scale (0 no effect, 100 complete control)

In the case of O=C(CCC(F)(F)F)c1c(Cl)cccc1Oc1ncc(Cl)cn1 [Compound 107, 1-[2-chloro-6-[(5-chloro-2-pyrimidinyl)oxy]phenyl]-4,4,4-trifluoro-1-butanone], the “Plant response rating, Ryegrass, Italian” value [1, 17] is reported as 30, the “Plant response rating, Ryegrass, Italian” value [1, 18] is reported as 80 and the “Plant response rating, Foxtail, Giant” value [2, 17] is reported as 100. For the same molecule, the “Plant response rating, Foxtail, Giant” value [2, 18] was 100, the “Plant response rating, Pigweed” value [3, 17] was 100 and the “Plant response rating, Pigweed” value [3, 18] was 100. For the same molecule, the “Plant response rating, Ragweed” value [4, 17] was 0, the “Plant response rating, Ragweed” value [4, 18] was 20 and the pest or weed control at 125 g/ha ([5]; 125 g ai/ha, scale of 0 to 100) was 90%. It also gave a pest or weed control at 16 g/ha ([5]; 16 g ai/ha, scale 0 to 100) of 60%, a pest or weed control at 31 g/ha ([5]; 31 g ai/ha, scale 0 to 100) of 90% and a pest or weed control at 62 g/ha ([5]; 62 g ai/ha, scale 0 to 100) of 90%. It also gave a Corn plant response rating (crop injury, 0 = no effect, 100 = complete kill) at 125 g/ha (corn (Zea mays); 125 g ai/ha, scale of 0 to 100) of 45%, a Corn plant response rating (crop injury, 0 = no effect, 100 = complete kill) at 16 g/ha (corn (Zea mays); 16 g ai/ha, scale 0 to 100) of 0% and a Corn plant response rating (crop injury, 0 = no effect, 100 = complete kill) at 31 g/ha (corn (Zea mays); 31 g ai/ha, scale 0 to 100) of 0%. The Corn plant response rating (crop injury, 0 = no effect, 100 = complete kill) at 62 g/ha (corn (Zea mays); 62 g ai/ha, scale 0 to 100) was 15%, the pest or weed control at 125 g/ha ([6]; 125 g ai/ha, scale of 0 to 100) was 100% and the pest or weed control at 16 g/ha ([6]; 16 g ai/ha, scale 0 to 100) was 98%. It also gave a pest or weed control at 31 g/ha ([6]; 31 g ai/ha, scale 0 to 100) of 98%, a pest or weed control at 62 g/ha ([6]; 62 g ai/ha, scale 0 to 100) of 100% and a pest or weed control at 125 g/ha ([7]; 125 g ai/ha, scale of 0 to 100) of 98%. For the same molecule, the pest or weed control at 31 g/ha ([7]; 31 g ai/ha, scale 0 to 100) was 98%, the pest or weed control at 62 g/ha ([7]; 62 g ai/ha, scale 0 to 100) was 98% and the pest or weed control at 125 g/ha ([8]; 125 g ai/ha, scale of 0 to 100) was 95%. It also gave a pest or weed control at 31 g/ha ([8]; 31 g ai/ha, scale 0 to 100) of 75%, a pest or weed control at 62 g/ha ([8]; 62 g ai/ha, scale 0 to 100) of 85% and a pest or weed control at 125 g/ha ([9]; 125 g ai/ha, scale of 0 to 100) of 85%. For the same molecule, the pest or weed control at 31 g/ha ([9]; 31 g ai/ha, scale 0 to 100) was 0%, the pest or weed control at 62 g/ha ([9]; 62 g ai/ha, scale 0 to 100) was 40% and the pest or weed control at 125 g/ha ([10]; 125 g ai/ha, scale of 0 to 100) was 0%. For the same molecule, the pest or weed control at 31 g/ha ([10]; 31 g ai/ha, scale 0 to 100) was 0%, the pest or weed control at 62 g/ha ([10]; 62 g ai/ha, scale 0 to 100) was 0% and the plant injury at 125 g/ha ([11]; 125 g ai/ha, scale of 0 to 100) was 98%. It also gave a plant injury at 31 g/ha ([11]; 31 g ai/ha, scale 0 to 100) of 40%, a plant injury at 62 g/ha ([11]; 62 g ai/ha, scale 0 to 100) of 85% and a pest or weed control at 125 g/ha ([12]; 125 g ai/ha, scale of 0 to 100) of 50%. For the same molecule, the pest or weed control at 31 g/ha ([12]; 31 g ai/ha, scale 0 to 100) was 30%, the pest or weed control at 62 g/ha ([12]; 62 g ai/ha, scale 0 to 100) was 50% and the pest or weed control at 125 g/ha ([13]; 125 g ai/ha, scale of 0 to 100) was 90%. The pest or weed control at 31 g/ha ([13]; 31 g ai/ha, scale 0 to 100) was 35%, the pest or weed control at 62 g/ha ([13]; 62 g ai/ha, scale 0 to 100) was 70% and the plant injury at 125 g/ha (soybean (Glycine max); 125 g ai/ha, scale of 0 to 100) was 45%. For the same molecule, the plant injury at 31 g/ha (soybean (Glycine max); 31 g ai/ha, scale 0 to 100) was 20%, the plant injury at 62 g/ha (soybean (Glycine max); 62 g ai/ha, scale 0 to 100) was 35% and the pest or weed control at 125 g/ha ([14]; 125 g ai/ha, scale of 0 to 100) was 98%. The pest or weed control at 31 g/ha ([14]; 31 g ai/ha, scale 0 to 100) was 75%, the pest or weed control at 62 g/ha ([14]; 62 g ai/ha, scale 0 to 100) was 98% and the pest or weed control at 125 g/ha ([15]; 125 g ai/ha, scale of 0 to 100) was 100%. For the same molecule, the pest or weed control at 31 g/ha ([15]; 31 g ai/ha, scale 0 to 100) was 98%, the pest or weed control at 62 g/ha ([15]; 62 g ai/ha, scale 0 to 100) was 100% and the plant injury at 125 g/ha ([16]; 125 g ai/ha, scale of 0 to 100) was 35%. For the same molecule, the plant injury at 31 g/ha ([16]; 31 g ai/ha, scale 0 to 100) was 10% and the plant injury at 62 g/ha ([16]; 62 g ai/ha, scale 0 to 100) was 15%.

— US11053204B2, “Pyrimidinyloxy benzene derivatives as herbicides” (FMC Corporation, priority 2015, dated 2021)
